Results reported in patent US20250066389A1, “HETEROCYCLIC AMIDES AND METHODS OF USING THE SAME” (Rgenta Therapeutics, Inc., priority 2021, published 2025).
Structures can show the parent of a compound that is named as a salt.

Tested on: PMS1
Assay: Mini-Gene Reporter Assay—PMS1 (firefly luciferase mini-gene reporter transiently transfected into HEK293 cells)
Assay type: cell-based
Conditions: Homo sapiens, mini-gene firefly luciferase reporter in HEK293 cells; for activation at 5 µM: read-out: PMS1 % Effect at 5 uM
Outline: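 Luminescence (RLU) read-out of exon inclusion: compound dilutions, tested in duplicate, act on transiently transfected HEK293 cells carrying a firefly luciferase reporter fused downstream of the PMS1 skipped-exon region. Potency derived by Levenberg-Marquardt curve fitting, with percent effect at 5 μM.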

IC50	Structure (SMILES)	activation at 5 µM
	CCOc1cn2nc(C)cc2cc1C(=O)Nc1cnc(N2CCC(COC3CCNC3)CC2)cn1 (centres unmarked) [Compound 523]	< 50%
	CCOc1cc2nn(C)cc2cc1C(=O)Nc1cnc(NCC2CNCCOC2)cn1 (centres unmarked) [Compound 347]	< 50%
	CCOc1cn2nc(C)cc2cc1C(=O)Nc1cnc(N2CCC3(CC2)CNCCO3)cn1 [Compound 542]	< 50%
1000 to 10000 nM	CCOc1cc2nc(C)cn2cc1C(=O)Nc1ccc(N2CCNCCC2C)nn1 (centres unmarked) [Compound 264]	
	CCOc1cc2nn(C)cc2cc1C(=O)Nc1cnc(NC2CCCNC2)cn1 (centres unmarked) [Compound 375]	50 to 75%
	CCOc1cn2nc(C)cc2cc1C(=O)Nc1cnc(N2CCC(NC)C2)cn1 (centres unmarked) [Compound 546]	> 75%
1000 to 10000 nM	CCOc1cc2nc(C)cn2cc1C(=O)Nc1ccc(N2CCC3(CCNCC3)C2)nn1 [Compound 273]	
1000 to 10000 nM	COc1cc2nn(C)cc2cc1C(=O)Nc1cnc(N2CCNCC2)cn1 [Compound 746, 6-methoxy-2-methyl-N-(5-(piperazin-1-yl)pyrazin-2-yl)-2H-indazole-5-carboxamide formate]	
	CCOc1cc2nn(C)cc2cc1C(=O)Nc1cnc(NCC2CC3CCC2N3)cn1 (centres unmarked) [Compound 304]	> 75%
	CCOc1cc2nc(C)cn2cc1C(=O)Nc1cnc(NC2CNC(C)(C)C2)cn1 (centres unmarked) [Compound 663]	> 75%
1000 to 10000 nM	CCOc1cc2nc(C)cn2cc1C(=O)Nc1ccc(N2CC3(CC(NC)CO3)C2)nn1 (centres unmarked) [Compound 296]	
	CCOc1cc2nn(C)cc2cc1C(=O)Nc1cnc(NC(C)CNC)nc1 (centres unmarked) [Compound 424]	< 50%
< 1000 nM	COc1cc2nc(C)cn2cc1C(=O)Nc1ccc(N2CCNCC2)cc1F [Compound 111, N-(2-fluoro-4-(piperazin-1-yl)phenyl)-7-methoxy-2-methylimidazo [1,2-a]pyridine-6-carboxamide hydrogen chloride]	
1000 to 10000 nM	CCOc1cc2nc(C)cn2cc1C(=O)Nc1ccc(N2CC3CN(C)CC3C2)nn1 (centres unmarked) [Compound 745, 7-ethoxy-2-methyl-N-(6-(5-methylhexahydropyrrolo[3,4-c]pyrrol-2(1H)-yl)pyridazin-3-yl)imidazo[1,2-a]pyridine-6-carboxamide formate]	
< 1000 nM	COc1cc2nc(C)cn2cc1C(=O)Nc1ccc(N(C)C2CNC2)cc1F [Compound 180, N-(4-(azetidin-3-yl(methyl)amino)-2-fluorophenyl)-7-methoxy-2-methylimidazo[1,2-a]pyridine-6-carboxamide]	
	CCOc1cc2nn(C)cc2cc1C(=O)Nc1cnc(NCCC2CCCCN2)nc1 (centres unmarked) [Compound 460]	< 50%
< 1000 nM	CCOc1cn2nc(C)cc2cc1C(=O)Nc1ccc(N2CCN[C@@H](C)C2)nn1 [Compound 215, (S)-6-ethoxy-2-methyl-N-(6-(3-methylpiperazin-1-yl)pyridazin-3-yl)pyrazolo[1,5-a]pyridine-5-carboxamide HCl Salt]	
< 1000 nM	COc1cc2nc(C)cn2cc1C(=O)Nc1cnc(N2CCN[C@@H](C)C2)cn1 [Compound 198, (S)-7-methoxy-2-methyl-N-(5-(3-methylpiperazin-1-yl)pyrazin-2-yl)imidazo[1,2-a]pyridine-6-carboxamide hydrochloride]	
	CCOc1cc2nn(C)cc2cc1C(=O)Nc1cnc(N2CC(C)NCC2C)nc1 (centres unmarked) [Compound 453]	50 to 75%
1000 to 10000 nM	CCOc1cc2nc(C)cn2cc1C(=O)Nc1ccc(N(C)C2CCNC2)nn1 (centres unmarked) [Compound 288]	
	CCOc1cn2nc(C)cc2cc1C(=O)Nc1cnc(N[C@H]2CCCNC2)cn1 [Compound 554]	> 75%
	CCOc1cc2nn(C)cc2cc1C(=O)Nc1cnc(NC[C@@H]2C[C@H]3CC[C@@H](C2)N3)cn1 [Compound 359]	< 50%
1000 to 10000 nM	COc1cc2nc(C)cn2cc1C(=O)Nc1ccc(N2C[C@@H](C)N[C@@H](C)C2)cn1 [Compound 724, N-(5-((3R,5S)-3,5-dimethylpiperazin-1-yl)pyridin-2-yl)-7-methoxy-2-methylimidazo[1,2-a]pyridine-6-carboxamide]	
